# Assay results taken from ChEMBL document CHEMBL1201862, “PubChem BioAssay data set” (2004).
#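 Cells were grown in 96-well plates and exposed to each compound for 48 hours at five concentrations; endpoints were interpolated linearly between bracketing concentrations, or set to the highest concentration if not reached. The concentration for 50% growth inhibition is given as GI50.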 Active and inactive are the calls of the source. No stated cut-off is given here; in the data, active = GI50 up to about 1.1 µM and inactive = higher.
# Key:
# Test in all cases: NCI tumour cell line growth inhibition, 48 h
# [1] = test system: MDA-MB-435
# [2] = test system: MDA-MB-231
# [3] = test system: BT-549
# [4] = test system: NCI/ADR-RES
# [5] = test system: LXFL 529
# [6] = test system: HOP-18
# [7] = test system: RXF 631
# [8] = test system: MCF7
# [9] = test system: Hs-578T
SMILES,GI50 [1],GI50 [2],GI50 [3],GI50 [4],GI50 [5],GI50 [6],GI50 [7],GI50 [8],GI50 [9]
c1ccc2c(c1)c1ccccc1n2Cn1c2ccccc2c2ccccc21,> 100 µM (inactive),> 100 µM (inactive),> 100 µM (inactive),> 100 µM (inactive),,,,,
OCc1cc2ccncc2c2c1[nH]c1ccccc12,,,,,4.58 µM (inactive),2.52 µM (inactive),,,
CCOC(=O)/C=C(\C)c1ccc(C)cc1C,,,,,14.6 µM (inactive),45 µM (inactive),> 100 µM (inactive),,
CCOC(=O)NC(=O)c1cn(C2CCCCC2)c(=O)n(C)c1=O,,,,,> 100 µM (inactive),> 100 µM (inactive),> 100 µM (inactive),,
C/C(=N\NC(=O)c1ccncc1)c1cccc(C(F)(F)F)c1,,> 10 µM (inactive),> 10 µM (inactive),> 10 µM (inactive),,,,6.9 µM (inactive),1.75 µM (inactive)
Cn1c(=O)nc2n(-c3ccc(Cl)c(C(F)(F)F)c3)c3ccccc3nc-2c1=O,,,,,76.9 µM (inactive),> 100 µM (inactive),,,
CCOC(=O)C1C(O)CC2c3ccccc3-c3ccccc3C21 (stereo unspecified),41.8 µM (inactive),25.9 µM (inactive),> 100 µM (inactive),40.5 µM (inactive),,,,49.5 µM (inactive),21.3 µM (inactive)
Cc1c(-c2cc3n(n2)C(c2cccs2)C(C#N)=C(c2ccccc2)N3)c(=O)n(-c2ccccc2)n1C (stereo unspecified),,,,> 86.3 µM (inactive),,> 100 µM (inactive),,> 86.5 µM (inactive),
CC1=NN(c2ccccc2)C(=O)C1=C1SCCCS1,,,,,34.6 µM (inactive),20.8 µM (inactive),,,
C=C[C@H]1CN2CCc3c([nH]c4cc(O)ccc34)[C@@H]2C[C@@H]1C[C@H]1c2[nH]c3ccccc3c2CCN1C,2.01 µM (inactive),6.05 µM (inactive),13.8 µM (inactive),9.06 µM (inactive),,,,2.31 µM (inactive),3.53 µM (inactive)
C/C(=N\NC(=S)N(C)C)c1nc2cccnc2[nH]1,0.762 µM (active),0.875 µM (active),0.0398 µM (active),0.449 µM (active),,,,1.05 µM (active),1.22 µM (inactive)
CCc1cc2c(oc3cc4ccccc4cc32)c(=O)[nH]1,,> 10 µM (inactive),> 10 µM (inactive),> 10 µM (inactive),,,,,> 10 µM (inactive)
N=C(N)c1csc([C@@H]2O[C@H](CO)[C@@H](O)[C@H]2O)n1,,,,,> 100 µM (inactive),59.7 µM (inactive),> 100 µM (inactive),,
O=S(=O)(/N=C(\NO)Nc1ccc(Cl)cc1)c1ccc(-c2ccccn2)s1,27.5 µM (inactive),49.7 µM (inactive),19.6 µM (inactive),30.9 µM (inactive),,,,,28.8 µM (inactive)
Cc1oc2nc(N(C)C)n3cnnc3c2c1C,> 100 µM (inactive),> 100 µM (inactive),> 100 µM (inactive),> 100 µM (inactive),,,,> 100 µM (inactive),> 100 µM (inactive)
CCC1(C)NN=c2s/c(=C/c3ccc(OC)cc3)c(=O)n2N1 (stereo unspecified),,,,,> 100 µM (inactive),,,,
CCN(CC)CCSc1nc(-c2c[nH]c3nc(C)ccc3c2=O)n[nH]1,> 100 µM (inactive),> 100 µM (inactive),> 100 µM (inactive),> 100 µM (inactive),,,,> 100 µM (inactive),> 100 µM (inactive)
N#C/C(=C/NC(=S)c1ccncc1)C(N)=O,> 100 µM (inactive),> 100 µM (inactive),> 100 µM (inactive),> 100 µM (inactive),,,,> 100 µM (inactive),
CSC1=N/C(=C\c2ccccc2)C(=O)N1CN1CCCCC1,49.7 µM (inactive),86.3 µM (inactive),,20 µM (inactive),,,,24.6 µM (inactive),36.4 µM (inactive)
Cc1ccc(S(=O)(=O)N/N=C2\C=CC3(CC2)C(=O)N(I)c2ccccc23)cc1 (stereo unspecified),> 100 µM (inactive),58.7 µM (inactive),,> 100 µM (inactive),,,,,
O=c1[nH]c2ccc([N+](=O)[O-])cc2nc1/C(=N/Nc1ccccc1)C(O)c1ccco1 (stereo unspecified),,,,,59.8 µM (inactive),,,,
Cc1ccc2nc(C(C)C)c(=O)[nH]c2c1,> 100 µM (inactive),> 100 µM (inactive),> 100 µM (inactive),54.7 µM (inactive),,,,> 100 µM (inactive),42.3 µM (inactive)
Nc1nncc2c1ccn2C1OC(CO)C(O)C1O (stereo unspecified),,,,,> 100 µM (inactive),> 100 µM (inactive),,,
C=CNC(=S)n1nc(-c2ccccc2NC(=O)C(F)(F)F)c(=O)n(C(=S)NC=C)c1=S,,,,,19.5 µM (inactive),,,,
Cc1c2cc[n+](C)cc2c(COC2OC(CO)C(O)C2O)c2c3ccccc3n(C)c12 (stereo unspecified),,,,> 97.7 µM (inactive),,27.5 µM (inactive),,> 100 µM (inactive),
CC1=NN(C(=O)c2ccccc2)C(=O)C1/N=N/c1ccccc1C(=O)O (stereo unspecified),,,,4.76 µM (inactive),,99.1 µM (inactive),,3.86 µM (inactive),
COc1c(C(=O)/C(=N/Nc2ccccc2)C(C)=O)c(O)c(OC)c2occc12,34 µM (inactive),18.5 µM (inactive),,56.5 µM (inactive),,,,25.4 µM (inactive),37.5 µM (inactive)
O=C(N/N=C/c1cc(-c2ccccc2Cl)c(-c2ccccc2Cl)o1)c1ccncc1,,,,,96.6 µM (inactive),,> 100 µM (inactive),,
CNC(=O)OCc1nc(SC)n(C)c1CO,,,,> 100 µM (inactive),,> 79.3 µM (inactive),,> 100 µM (inactive),
COc1ccc(C2c3cc4c(cc3OC(Nc3ccccc3)C2C)OCO4)cc1 (stereo unspecified),67.8 µM (inactive),> 100 µM (inactive),68.1 µM (inactive),,,,,23.6 µM (inactive),> 100 µM (inactive)
